For 18 compounds, Ki and EC50 results are on record in patent US9346815B2, “5-chloro-2-difluoromethoxyphenyl pyrazolopyrimidine compounds, compositions and methods of use thereof” (Genentech, Inc., priority 2014, dated 2016).

Molecules are shown by their SMILES.

Experiment [1] has as its target isolated recombinant JAK1 kinase domain (Homo sapiens (Human), UniProt P23458). The experiment is described as follows: JAK1 enzyme assay (Caliper LabChip, peptide phosphorylation). The class given is biochemical. The note with it: isolated recombinant JAK1 kinase domain, 25 μM ATP.
Experiment [2] has as its target isolated recombinant JAK2 kinase domain (Homo sapiens (Human), UniProt O60674). Briefly: JAK2 enzyme assay (Caliper LabChip, peptide phosphorylation). The class given is biochemical. The note with it: 25 μM ATP.
The subject of experiment [3] is JAK1-dependent STAT6 phosphorylation downstream of IL-13 stimulation in TF-1 human erythroleukemia cells. Briefly: JAK1 pathway assay in TF-1 cells (IL-13-pSTAT6, MSD). The experiment is classed as cell-based. To be noted: Homo sapiens, TF-1, TF-1 cells, read-out: IL13-pSTAT6 EC50_TF-1. Put shortly: (§1)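 Inhibitors were added to TF-1 cells (GM-CSF-starved, serum-free) for 30 min or to BEAS-2B cells (complete medium) for 1 hr at 37° C. MSD detected pSTAT6.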

For experiment [4], the system named is JAK1-dependent STAT6 phosphorylation downstream of IL-13 stimulation in BEAS-2B human bronchial epithelial cells. The experiment is described as follows: JAK1 pathway assay in BEAS-2B cells (IL-13-pSTAT6, MSD). The experiment is classed as cell-based. To be noted: read-out: IL13-pSTAT6 EC50 (uM)_BEAS-2B. The gist of the method: as §1

Sequence of isolated recombinant JAK1 kinase domain (P23458 875-1153): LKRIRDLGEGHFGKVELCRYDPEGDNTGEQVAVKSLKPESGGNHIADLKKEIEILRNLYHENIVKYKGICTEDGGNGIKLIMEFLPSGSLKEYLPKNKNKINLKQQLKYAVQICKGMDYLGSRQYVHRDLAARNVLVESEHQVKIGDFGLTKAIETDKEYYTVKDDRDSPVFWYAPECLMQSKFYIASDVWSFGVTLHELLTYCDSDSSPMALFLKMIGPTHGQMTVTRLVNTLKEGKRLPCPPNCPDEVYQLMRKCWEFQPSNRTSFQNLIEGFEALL
Sequence of isolated recombinant JAK2 kinase domain (O60674 849-1124): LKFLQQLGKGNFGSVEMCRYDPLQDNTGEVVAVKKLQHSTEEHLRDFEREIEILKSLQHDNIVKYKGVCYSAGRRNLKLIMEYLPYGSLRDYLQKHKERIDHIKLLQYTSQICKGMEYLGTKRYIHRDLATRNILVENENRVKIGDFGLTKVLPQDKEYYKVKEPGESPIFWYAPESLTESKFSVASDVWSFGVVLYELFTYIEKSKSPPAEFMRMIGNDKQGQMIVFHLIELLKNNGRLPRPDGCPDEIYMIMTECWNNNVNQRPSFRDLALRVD

For `CN1CC[C@@H]2[C@H](CCN2C(=O)Cn2cc(NC(=O)c3cnn4cccnc34)c(-c3cc(Cl)ccc3OC(F)F)n2)C1` [Example 61, N-[1-[2-[(3aR,7aR)-5-methyl-3,3a,4,6,7,7a-hexahydro-2H-pyrrolo[3,2-c]pyridin-1-yl]-2-oxo-ethyl]-3-[5-chloro-2-(difluoromethoxy)phenyl]pyrazol-4-yl]pyrazolo[1,5-a]pyrimidine-3-carboxamide], the Ki was determined as 0.23 nM in experiment [1] and 0.68 nM in experiment [2]. Besides, the EC50 came to 27.5 nM in experiment [3] and 0.0324 µM in experiment [4].
Taken in the same sequence, the figures for `CN[C@H]1C[C@@H](n2cc(NC(=O)c3c(N)nn4cccnc34)c(-c3cc(Cl)ccc3OC(F)F)n2)C1` [Example 298, 2-amino-N-[3-[5-chloro-2-(difluoromethoxy)phenyl]-1-[3-(methylamino)cyclobutyl]pyrazol-4-yl]pyrazolo[1,5-a]pyrimidine-3-carboxamide] were 0.52 nM, 0.18 nM, 4.4 nM and 0.0215 µM.
In the same order, the values of `N=C(N)CCn1cc(NC(=O)c2cnn3cccnc23)c(-c2cc(Cl)ccc2OC(F)F)n1` [Example 304, N-[1-(2-carbamimidoylethyl)-3-[5-chloro-2-(difluoromethoxy)phenyl]-1H-pyrazol-4-yl]pyrazolo[1,5-a]pyrimidine-3-carboxamide] are 0.78 nM, 0.39 nM, 5.9 nM and 0.0469 µM.
Taken in the same sequence, the figures for `O=C(CNCCn1cc(NC(=O)c2cnn3cccnc23)c(-c2cc(Cl)ccc2OC(F)F)n1)OC1CCCC1` [Example 307, cyclopentyl 2-[2-[3-[5-chloro-2-(difluoromethoxy)phenyl]-4-(pyrazolo[1,5-a]pyrimidine-3-carbonylamino)pyrazol-1-yl]ethylamino]acetate] were 1.45 nM, 0.59 nM, 6.1 nM and 0.025 µM.
On to `O=C(Nc1cn(CC(=O)N2CCC(NC(c3ccccc3)C(F)(F)F)CC2)nc1-c1cc(Cl)ccc1OC(F)F)c1cnn2cccnc12` (stereo not drawn) [Example 132, N-[3-[5-chloro-2-(difluoromethoxy)phenyl]-1-[2-oxo-2-[4-[(2,2,2-trifluoro-1-phenyl-ethyl)amino]-1-piperidyl]ethyl]pyrazol-4-yl]pyrazolo[1,5-a]pyrimidine-3-carboxamide], for which the Ki stood at 0.57 nM in experiment [1] and 1.27 nM in experiment [2]. Besides, the EC50 in experiment [3] came to 3.1 nM; in experiment [4], 0.0973 µM.
In the same order, the values of `CN1CC[C@H]2[C@H](CCN2C(=O)Cn2cc(NC(=O)c3cnn4cccnc34)c(-c3cc(Cl)ccc3OC(F)F)n2)C1` [Example 48, N-[1-[2-[(3aR,7aS)-5-methyl-3,3a,4,6,7,7a-hexahydro-2H-pyrrolo[3,2-c]pyridin-1-yl]-2-oxo-ethyl]-3-[5-chloro-2-(difluoromethoxy)phenyl]pyrazol-4-yl]pyrazolo[1,5-a]pyrimidine-3-carboxamide] are 0.94 nM, 1.85 nM, 13.7 nM and 0.0594 µM.
In the same order, the values of `O=C(Nc1cn(CC(=O)N2CCN(CCO)CC2)nc1-c1cc(Cl)ccc1OC(F)F)c1cnn2cccnc12` [Example 228, N-[3-[5-chloro-2-(difluoromethoxy)phenyl]-1-[2-[4-(2-hydroxyethyl)piperazin-1-yl]-2-oxo-ethyl]pyrazol-4-yl]pyrazolo[1,5-a]pyrimidine-3-carboxamide] are 0.47 nM, 0.89 nM, 11.1 nM and 0.0655 µM.
Take `CC1(CN(CCC(F)(F)F)C2CCN(C(=O)Cn3cc(NC(=O)c4cnn5cccnc45)c(-c4cc(Cl)ccc4OC(F)F)n3)CC2)COC1` [Example 117, N-[3-[5-chloro-2-(difluoromethoxy)phenyl]-1-[2-[4-[(3-methyloxetan-3-yl)methyl-(3,3,3-trifluoropropyl)amino]-1-piperidyl]-2-oxo-ethyl]pyrazol-4-yl]pyrazolo[1,5-a]pyrimidine-3-carboxamide]: the Ki in experiment [1] turned out to be 0.51 nM; in experiment [2] it was 1.13 nM. Also, the EC50 stood at 8.6 nM in experiment [3] and 0.0546 µM in experiment [4].
Taken in the same sequence, the figures for `CN1CCN(C(=O)Cn2cc(NC(=O)c3cnn4cccnc34)c(-c3cc(Cl)ccc3OC(F)F)n2)CC1` [Example 227, Pyrazolo[1,5-a]pyrimidine-3-carboxylic acid {3-(5-chloro-2-difluoromethoxyphenyl)-1-[2-(4-methylpiperazin-1-yl)-2-oxoethyl]-1H-pyrazol-4-yl}amide] were 0.55 nM, 0.93 nM, 3.6 nM and 0.0271 µM.
Regarding `CCN(Cc1ccnc(C)c1)C(=O)Cn1cc(NC(=O)c2cnn3cccnc23)c(-c2cc(Cl)ccc2OC(F)F)n1` [Example 299, N-[3-[5-chloro-2-(difluoromethoxy)phenyl]-1-[2-[ethyl-[(2-methyl-4-pyridyl)methyl]amino]-2-oxo-ethyl]pyrazol-4-yl]pyrazolo[1,5-a]pyrimidine-3-carboxamide], the results for the Ki in experiment [1] and in experiment [2] were 0.38 nM and 0.39 nM, respectively. Further, the EC50 in experiment [3] was 4.1 nM; in experiment [4], 0.0104 µM.
Taken in the same sequence, the figures for `CN1CC2CN(C(=O)Cn3cc(NC(=O)c4c(N)nn5cccnc45)c(-c4cc(Cl)ccc4OC(F)F)n3)CC2C1` (stereo not drawn) [Example 9, 2-amino-N-[3-[5-chloro-2-(difluoromethoxy)phenyl]-1-[2-(2-methyl-1,3,3a,4,6,6a-hexahydropyrrolo[3,4-c]pyrrol-5-yl)-2-oxo-ethyl]pyrazol-4-yl]pyrazolo[1,5-a]pyrimidine-3-carboxamide] were 0.71 nM, 0.28 nM, 15.6 nM and 0.554 µM.
In the same order, the values of `CCOC(=O)[C@@H](N)CCn1cc(NC(=O)c2cnn3cccnc23)c(-c2cc(Cl)ccc2OC(F)F)n1` [Example 309, ethyl (2S)-2-amino-4-[3-[5-chloro-2-(difluoromethoxy)phenyl]-4-(pyrazolo[1,5-a]pyrimidine-3-carbonylamino)pyrazol-1-yl]butanoate] are 1.34 nM, 0.47 nM, 16.3 nM and 0.049 µM.
In the same order, the values of `CC1(O)CCN(C(=O)Cn2cc(NC(=O)c3cnn4cccnc34)c(-c3cc(Cl)ccc3OC(F)F)n2)CC1` [Example 280, N-[3-[5-chloro-2-(difluoromethoxy)phenyl]-1-[2-(4-hydroxy-4-methyl-1-piperidyl)-2-oxo-ethyl]pyrazol-4-yl]pyrazolo[1,5-a]pyrimidine-3-carboxamide] are 0.39 nM, 0.81 nM, 4.3 nM and 0.0215 µM.
In the case of `O=C(Nc1cn(CC(=O)N2CCOCC2)nc1-c1cc(Cl)ccc1OC(F)F)c1cnn2cccnc12` [Example 288, N-[3-[5-chloro-2-(difluoromethoxy)phenyl]-1-(2-morpholino-2-oxo-ethyl)pyrazol-4-yl]pyrazolo[1,5-a]pyrimidine-3-carboxamide], the figures for the Ki in experiment [1] and in experiment [2] were 0.58 nM and 1.11 nM, respectively. Further, the EC50 in experiment [3] amounted to 2.8 nM; in experiment [4], 0.0363 µM.
Turning to `CNC1CCN(C(=O)Cn2cc(NC(=O)c3cnn4cccnc34)c(-c3cc(Cl)ccc3OC(F)F)n2)CC1` [Example 83, N-[3-[5-chloro-2-(difluoromethoxy)phenyl]-1-[2-[4-(methylamino)-1-piperidyl]-2-oxo-ethyl]pyrazol-4-yl]pyrazolo[1,5-a]pyrimidine-3-carboxamide], the values for the inhibition constant (Ki) in experiment [1] and in experiment [2] were 1.07 nM and 1.59 nM, respectively. The EC50 in experiment [3] was 42.3 nM; in experiment [4], 0.143 µM.
In the same order, the values of `CCN(Cc1cccnc1)C(=O)Cn1cc(NC(=O)c2cnn3cccnc23)c(-c2cc(Cl)ccc2OC(F)F)n1` [Example 301, N-[3-[5-chloro-2-(difluoromethoxy)phenyl]-1-[2-[ethyl(3-pyridylmethyl)amino]-2-oxo-ethyl]pyrazol-4-yl]pyrazolo[1,5-a]pyrimidine-3-carboxamide] are 0.33 nM, 0.36 nM, 3.4 nM and 0.0095 µM.
In the same order, the values of `CC(C)CN1C[C@@H]2CN(C(=O)Cn3cc(NC(=O)c4cnn5cccnc45)c(-c4cc(Cl)ccc4OC(F)F)n3)C[C@@H]2C1` [Example 28, N-[1-[2-[(3aS,6aR)-2-isobutyl-1,3,3a,4,6,6a-hexahydropyrrolo[3,4-c]pyrrol-5-yl]-2-oxo-ethyl]-3-[5-chloro-2-(difluoromethoxy)phenyl]pyrazol-4-yl]pyrazolo[1,5-a]pyrimidine-3-carboxamide] are 0.82 nM, 0.84 nM, 3.5 nM and 0.177 µM.
In the case of `CN1CC[C@H]2[C@@H](CCN2C(=O)Cn2cc(NC(=O)c3cnn4cccnc34)c(-c3cc(Cl)ccc3OC(F)F)n2)C1` [Example 62, N-[1-[2-[(3aS,7aS)-5-methyl-3,3a,4,6,7,7a-hexahydro-2H-pyrrolo[3,2-c]pyridin-1-yl]-2-oxo-ethyl]-3-[5-chloro-2-(difluoromethoxy)phenyl]pyrazol-4-yl]pyrazolo[1,5-a]pyrimidine-3-carboxamide], the Ki in experiment [1] amounted to 2.07 nM; in experiment [2] it was 2.68 nM. Moreover, the EC50 was found to be 55.8 nM in experiment [3] and 0.0892 µM in experiment [4].
